From patent US20250270617A1, “Compound - diagnostic marker for kidney cancer, method for detecting enzymatic activity, method for diagnosis of kidney cancer, kit comprising the compound, uses of the compound and method for the treatment of kidney cancer” (URTESTE S.A., priority 2022, published 2025)
Values joined by “and” are separate entries in the source; they are usually repeats but may differ in a detail not shown here. Identical values can stand only once. Numbered stars: 1 amine (or outer) side, 2 acyl side, 3 side chain; on linkers, the order of the positions; unused ones are H or OH. Square brackets hold non-standard residues; d marks the D form. Ends that are not written are not given here. Benzoyl(5-NH,2-NO2) = O=C(c1cc(N[*:1])ccc1[N+](=O)[O-])[*:2]; 2Abz = Nc1ccccc1C(=O)O

How the values were obtained:
Type in all cases: biochemical, human
[1] = system: proteolytic enzymes in urine from patients with different cancers; experiment: Selectivity of substrate cleavage in urine samples by cancer type; settings: testicular, prostate, pancreatic, biliary duct, lung, ovary, rectum cancer; mixture of 20 samples each; FIG. 3
Description: Arabic numerals indicate the numbers of given cancer types. The samples tested for each type of cancer were derived from 20 different patients for each of the tested cancers. The results are mean values for given cancer types.
(§1) The activity of the novel compounds according to the invention was studied in a group of 20 subjects diagnosed with kidney cancer using the representative compound according to the invention. […] The remaining compounds according to the invention are characterized by the analogous mechanism of action. For this purpose, the representative compound according to the invention, ABZ^1-Leu^2-Pro^3-Gly^4-Thr^5-ANB^6—NH2, was dissolved in dimethyl sulfoxide (at a concentration of 0.5 mg/mL) and then 50 μL of the solution was mixed with 120 μL of a buffer (200 mM Tris-HCl, pH 8.0) and 80 μL of urine from a subject suffering from kidney cancer. The measurement was performed on a 96-well plate designed for measuring absorbance and each sample was analysed in triplicate at the temperature of 37° C. The duration of the measurement was 60 minutes. During the measurement, the wavelength characteristic for the chromophore (ANB-NH2) being released was monitored at the wavelength 405 nm (range 380-430 nm).
Furthermore, the dependence of the cleavage selectivity of the substrate, i.e. the compound according to the invention, on the cancer type being examined, was studied. […]

[2] = system: proteolytic enzymes in urine from a person diagnosed with kidney cancer; experiment: RP HPLC analysis of substrate cleavage in urine from a person with kidney cancer; settings: randomly selected urine from a person diagnosed with kidney cancer; FIG. 1
[3] = system: proteolytic enzymes specific/characteristic of kidney cancer in urine; experiment: Absorbance measurement of substrate hydrolysis in individual urine samples (kidney cancer and healthy subjects)
[4] = system: proteolytic enzymes in urine; experiment: Dependence of substrate hydrolysis on reaction pH; settings: FIG. 4
Experimental: Furthermore, measurements concerning the dependence of the proteolytic activity of the representative compound according to the invention on the reaction pH were performed.

[5] = system: proteolytic enzymes specific/characteristic of kidney cancer in urine; experiment: Absorbance measurement of substrate hydrolysis in individual urine samples (kidney cancer and healthy subjects); settings: for Results of absorbance analysis (rate of hydrolysis of the substrate): 405 nm, 37° C., 60 minutes, pH 8.0, triplicate
Experimental: as §1
The observed magnitude of increase in absorbance in time is different for each of the examined samples.
Such a result may be due to the difference in the activity as well as the amount of enzymes responsible for the enzymatic cleavage (proteolysis). […] The result indicates the absence of proteolytic enzymes specific/characteristic of kidney cancer.

Substance: ABZ-Leu-Pro-Gly-Thr-ANB-NH2 ([2Abz]LPGT-{Benzoyl(5-NH,2-NO2)-NH2}) [chromogenic/fluorogenic peptide; ABZ is 2-aminobenzoic acid, ANB-NH2 is amide of 5-amino-2-nitrobenzoic acid]
- Cleavage of the substrate in samples from patients with other cancers [1]: is not subject to cleavage
- Cleavage products by RP HPLC analysis [2]: cleaves into the peptide fragment ABZ-Leu-Pro-Gly-Thr-OH and the chromophore group of the compound (ANB-NH2)
- Increase in absorbance / hydrolysis in urine samples from healthy persons ([3]; samples 21 to 40, without a cancer diagnosis): does not lead to an increase in absorbance
- Results of absorbance analysis (rate of hydrolysis of the substrate) ([3]; urine sample 35, healthy subject, 405 nm, 37° C., 60 minutes, pH 8.0, triplicate): 0.000000
- Dependence of the hydrolysis level of the substrate on pH [4]: maximum activity at alkaline pH
- Cleavage of the substrate in urine samples from persons suffering from kidney cancer ([5]; all samples N1-N20): underwent cleavage
- Efficiency of substrate cleavage in samples N3 and N6 ([5]; compared with samples N5 or N20, FIG. 2, Table 1): less efficiently
- Results of absorbance analysis (rate of hydrolysis of the substrate) ([5]; urine sample 21, healthy subject): 0.000000
- Results of absorbance analysis (rate of hydrolysis of the substrate) ([5]; urine sample 22, healthy subject): 0.000000
- Results of absorbance analysis (rate of hydrolysis of the substrate) ([5]; urine sample 23, healthy subject): 0.000000
- Results of absorbance analysis (rate of hydrolysis of the substrate) ([5]; urine sample 24, healthy subject): 0.000000
- Results of absorbance analysis (rate of hydrolysis of the substrate) ([5]; urine sample 25, healthy subject): 0.000000
- Results of absorbance analysis (rate of hydrolysis of the substrate) ([5]; urine sample 26, healthy subject): 0.000000
- Results of absorbance analysis (rate of hydrolysis of the substrate) ([5]; urine sample 27, healthy subject): 0.000000
- Results of absorbance analysis (rate of hydrolysis of the substrate) ([5]; urine sample 28, healthy subject): 0.000000
- Results of absorbance analysis (rate of hydrolysis of the substrate) ([5]; urine sample 29, healthy subject): 0.000000
- Results of absorbance analysis (rate of hydrolysis of the substrate) ([5]; urine sample 30, healthy subject): 0.000000
- Results of absorbance analysis (rate of hydrolysis of the substrate) ([5]; urine sample 31, healthy subject): 0.000000
- Results of absorbance analysis (rate of hydrolysis of the substrate) ([5]; urine sample 32, healthy subject): 0.000000
- Results of absorbance analysis (rate of hydrolysis of the substrate) ([5]; urine sample 33, healthy subject): 0.000000
- Results of absorbance analysis (rate of hydrolysis of the substrate) ([5]; urine sample 34, healthy subject): 0.000000
- Results of absorbance analysis (rate of hydrolysis of the substrate) ([5]; urine sample 36, healthy subject): 0.000000
- Results of absorbance analysis (rate of hydrolysis of the substrate) ([5]; urine sample 37, healthy subject): 0.000000
- Results of absorbance analysis (rate of hydrolysis of the substrate) ([5]; urine sample 38, healthy subject): 0.000000
- Results of absorbance analysis (rate of hydrolysis of the substrate) ([5]; urine sample 39, healthy subject): 0.000000
- Results of absorbance analysis (rate of hydrolysis of the substrate) ([5]; urine sample 40, healthy subject): 0.000000
- Results of absorbance analysis (rate of hydrolysis of the substrate) ([5]; urine sample N1, subject with kidney cancer): 0.027 and 0.019 and 0.023
- Results of absorbance analysis (rate of hydrolysis of the substrate) ([5]; urine sample N2, subject with kidney cancer): 0.021 and 0.014 and 0.019
- Results of absorbance analysis (rate of hydrolysis of the substrate) ([5]; urine sample N4, subject with kidney cancer): 0.032 and 0.029 and 0.03
- Results of absorbance analysis (rate of hydrolysis of the substrate) ([5]; urine sample N5, subject with kidney cancer): 0.034 and 0.032 and 0.029
- Results of absorbance analysis (rate of hydrolysis of the substrate) ([5]; urine sample N6, subject with kidney cancer): 0.0033 and 0.0027 and 0.003
- Results of absorbance analysis (rate of hydrolysis of the substrate) ([5]; urine sample N7, subject with kidney cancer): 0.02 and 0.021 and 0.018
- Results of absorbance analysis (rate of hydrolysis of the substrate) ([5]; urine sample N9, subject with kidney cancer): 0.031 and 0.03 and 0.035
- Results of absorbance analysis (rate of hydrolysis of the substrate) ([5]; urine sample N10, subject with kidney cancer): 0.0026 and 0.0037 and 0.0031
- Results of absorbance analysis (rate of hydrolysis of the substrate) ([5]; urine sample N11, subject with kidney cancer): 0.012 and 0.01 and 0.015
- Results of absorbance analysis (rate of hydrolysis of the substrate) ([5]; urine sample N12, subject with kidney cancer): 0.0098 and 0.0111 and 0.012
- Results of absorbance analysis (rate of hydrolysis of the substrate) ([5]; urine sample N13, subject with kidney cancer): 0.004 and 0.0051 and 0.0045
- Results of absorbance analysis (rate of hydrolysis of the substrate) ([5]; urine sample N14, subject with kidney cancer): 0.0036 and 0.0033 and 0.0032
- Results of absorbance analysis (rate of hydrolysis of the substrate) ([5]; urine sample N15, subject with kidney cancer): 0.0043 and 0.0037 and 0.004
- Results of absorbance analysis (rate of hydrolysis of the substrate) ([5]; urine sample N16, subject with kidney cancer): 0.0039 and 0.0037 and 0.0035
- Results of absorbance analysis (rate of hydrolysis of the substrate) ([5]; urine sample N17, subject with kidney cancer): 0.013 and 0.0135 and 0.0136
- Results of absorbance analysis (rate of hydrolysis of the substrate) ([5]; urine sample N18, subject with kidney cancer): 0.004 and 0.0032 and 0.0038
- Results of absorbance analysis (rate of hydrolysis of the substrate) ([5]; urine sample N19, subject with kidney cancer): 0.0038 and 0.004 and 0.0037
- Results of absorbance analysis (rate of hydrolysis of the substrate) ([5]; urine sample N20, subject with kidney cancer): 0.031 and 0.026
